Source: ChEMBL document CHEMBL1201862, “PubChem BioAssay data set” (2004)
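Exposure lasted 48 hours, with cells grown in 96-well plates and compounds tested at five concentrations. The concentration for 50% growth inhibition is given as GI50.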 The source made the active and inactive calls. No stated cut-off is given here; in the data, active = GI50 up to about 1.1 µM and inactive = higher.

Tests used:
Assay in all cases: NCI tumour cell line growth inhibition, 48 h
KM12 = test system: KM12
NCI-H23 = test system: NCI-H23
A549 = test system: A549
LOX IMVI = test system: LOX IMVI
OVCAR-5 = test system: OVCAR-5
U-251 = test system: U-251
HCT-116 = test system: HCT-116
SN12C = test system: SN12C
SF-268 = test system: SF-268
SK-MEL-28 = test system: SK-MEL-28
HT-29 = test system: HT-29
IGROV-1 = test system: IGROV-1
HCT-15 = test system: HCT-15
CAKI-1 = test system: CAKI-1
HL-60 = test system: HL-60
UO-31 = test system: UO-31
MOLT-4 = test system: MOLT-4
SK-OV-3 = test system: SK-OV-3
NCI-H460 = test system: NCI-H460
SK-MEL-2 = test system: SK-MEL-2

Row | Compound | GI50 (KM12) | GI50 (NCI-H23) | GI50 (A549) | GI50 (LOX IMVI) | GI50 (OVCAR-5) | GI50 (U-251) | GI50 (HCT-116) | GI50 (SN12C) | GI50 (SF-268) | GI50 (SK-MEL-28) | GI50 (HT-29) | GI50 (IGROV-1) | GI50 (HCT-15) [µM] | GI50 (CAKI-1) | GI50 (HL-60) | GI50 (UO-31) | GI50 (MOLT-4) | GI50 (SK-OV-3) | GI50 (NCI-H460) | GI50 (SK-MEL-2)
1 | COc1ccc(-c2c(C#N)c(NC(=S)NC(=O)c3ccccc3)nc3c2CCCC3)cc1OC | > 100 µM (inactive) | 67.9 µM (inactive) | 52.4 µM (inactive) | 49.7 µM (inactive) | 98.2 µM (inactive) | 71.1 µM (inactive) | > 100 µM (inactive) | 49 µM (inactive) | 41.8 µM (inactive) | 61.4 µM (inactive) | 58.6 µM (inactive) | 62.1 µM (inactive) | > 100 | 49.5 µM (inactive) | 34.1 µM (inactive) | 35.2 µM (inactive) | 27 µM (inactive) | > 100 µM (inactive) | 35 µM (inactive) | 
2 | CCN(CC)CCN1C(=O)C(=O)N(c2cccc3ccccc23)C1=O | > 10 µM (inactive) | > 10 µM (inactive) | > 10 µM (inactive) | > 10 µM (inactive) | > 10 µM (inactive) | > 10 µM (inactive) | > 10 µM (inactive) | > 10 µM (inactive) | > 10 µM (inactive) | > 10 µM (inactive) | > 10 µM (inactive) | > 10 µM (inactive) | > 10 | > 10 µM (inactive) | > 10 µM (inactive) | > 10 µM (inactive) | > 10 µM (inactive) | > 10 µM (inactive) | > 10 µM (inactive) | > 10 µM (inactive)
3 | CC1(C)CCc2ccc(OCCC(=O)O)cc2O1 | > 100 µM (inactive) | > 100 µM (inactive) | > 100 µM (inactive) | > 100 µM (inactive) | > 100 µM (inactive) | > 100 µM (inactive) | > 100 µM (inactive) | > 100 µM (inactive) | > 100 µM (inactive) |  | > 100 µM (inactive) | > 100 µM (inactive) | > 100 | > 100 µM (inactive) | > 100 µM (inactive) | > 100 µM (inactive) | > 100 µM (inactive) | > 100 µM (inactive) | > 100 µM (inactive) | > 100 µM (inactive)
4 | CCOc1cc(C(=O)O)c2c(ccc3ccc(OC)c(OC)c32)c1OC | > 100 µM (inactive) | > 100 µM (inactive) | > 100 µM (inactive) | > 100 µM (inactive) | > 100 µM (inactive) | > 100 µM (inactive) | > 100 µM (inactive) | > 100 µM (inactive) | > 100 µM (inactive) | > 100 µM (inactive) | > 100 µM (inactive) | > 100 µM (inactive) | > 100 | > 100 µM (inactive) | > 100 µM (inactive) | > 100 µM (inactive) | > 100 µM (inactive) | > 100 µM (inactive) | > 100 µM (inactive) | > 100 µM (inactive)
5 | O=C(OC(=O)n1ccc2ccccc21)n1ccc2ccccc21 | > 100 µM (inactive) | > 100 µM (inactive) | > 100 µM (inactive) | > 100 µM (inactive) | > 100 µM (inactive) | > 100 µM (inactive) | > 100 µM (inactive) | > 100 µM (inactive) | > 100 µM (inactive) | > 100 µM (inactive) | > 100 µM (inactive) | > 100 µM (inactive) | > 100 | > 96.4 µM (inactive) | > 100 µM (inactive) | 75.7 µM (inactive) | > 100 µM (inactive) | > 100 µM (inactive) | > 100 µM (inactive) | > 100 µM (inactive)
6 | CN1CCN(Cn2nc(COc3ccc(Cl)cc3)n(/N=C/c3ccc(-c4ccc(Cl)cc4Cl)o3)c2=S)CC1 | 3.18 µM (inactive) |  |  | 5.57 µM (inactive) | 6.46 µM (inactive) | 10.9 µM (inactive) | 13.4 µM (inactive) |  | 3.95 µM (inactive) | 13.9 µM (inactive) | 3.7 µM (inactive) | 10.6 µM (inactive) | 18.6 | 14.2 µM (inactive) |  | 17.6 µM (inactive) | 16.7 µM (inactive) | 15.7 µM (inactive) | 17.8 µM (inactive) | 18.3 µM (inactive)
7 | O=C(NN1C(=O)CS(=O)(=O)C1c1ccc(C(F)(F)F)cc1)c1ccncc1 (centres undefined) | > 100 µM (inactive) | > 100 µM (inactive) | > 100 µM (inactive) | > 100 µM (inactive) | > 100 µM (inactive) | > 100 µM (inactive) | > 100 µM (inactive) | > 100 µM (inactive) | > 100 µM (inactive) | > 100 µM (inactive) | > 100 µM (inactive) |  | > 100 | > 100 µM (inactive) | > 100 µM (inactive) |  | > 100 µM (inactive) | > 100 µM (inactive) | > 100 µM (inactive) | > 100 µM (inactive)
8 | COCCOCOC(C)(C)[C@H](CCO)O[Si](c1ccccc1)(c1ccccc1)C(C)(C)C | 11.5 µM (inactive) | 15.7 µM (inactive) | 6.32 µM (inactive) | 8.36 µM (inactive) | 14.1 µM (inactive) | 11 µM (inactive) | 3.67 µM (inactive) | 3.34 µM (inactive) | 7.13 µM (inactive) | 14.9 µM (inactive) | 8.61 µM (inactive) | 9.14 µM (inactive) | 4.68 |  | 2.39 µM (inactive) | 13 µM (inactive) | 3.54 µM (inactive) | 12.5 µM (inactive) | 5.15 µM (inactive) | > 10 µM (inactive)
9 | CC1(C)N/C(=C\C=O)C(C)(C)N1O | > 100 µM (inactive) | > 100 µM (inactive) | > 100 µM (inactive) | > 100 µM (inactive) | > 100 µM (inactive) | > 100 µM (inactive) | > 100 µM (inactive) | > 100 µM (inactive) | > 100 µM (inactive) | > 100 µM (inactive) | > 100 µM (inactive) | > 100 µM (inactive) | > 100 | > 100 µM (inactive) | > 100 µM (inactive) | > 100 µM (inactive) | > 100 µM (inactive) | > 100 µM (inactive) | > 100 µM (inactive) | > 100 µM (inactive)
10 | CCCCN(CCCC)c1ccc(/N=N/c2ccc(S(=O)(=O)O)cc2)cc1 | 12.8 µM (inactive) | 20.6 µM (inactive) | 39.8 µM (inactive) | 18.9 µM (inactive) | 60.8 µM (inactive) | 32.3 µM (inactive) | 15.6 µM (inactive) | 25.4 µM (inactive) | > 100 µM (inactive) | 81.3 µM (inactive) | 26.4 µM (inactive) | 14.7 µM (inactive) | 17.2 | 20.2 µM (inactive) | 19.8 µM (inactive) | 72.3 µM (inactive) | 17.7 µM (inactive) | 25.5 µM (inactive) | 34 µM (inactive) | 51.1 µM (inactive)
11 | COc1ccccc1/C=C1\CCC(CCN2CCOCC2)C1=O (centres undefined) | > 100 µM (inactive) | > 100 µM (inactive) | > 100 µM (inactive) | 63.2 µM (inactive) | > 100 µM (inactive) |  | 70.8 µM (inactive) | > 100 µM (inactive) | > 100 µM (inactive) | > 100 µM (inactive) | 50.1 µM (inactive) | > 100 µM (inactive) | 91.8 | > 100 µM (inactive) | 31.5 µM (inactive) | 90.4 µM (inactive) | 48.1 µM (inactive) |  | 90.8 µM (inactive) | > 100 µM (inactive)
12 | COc1cc2c(cc1OC)C(Cc1c3ccccc3cc3ccccc13)N(C)CC2 (centres undefined) | 16.3 µM (inactive) | 29 µM (inactive) | 39.8 µM (inactive) | 18 µM (inactive) | 13.5 µM (inactive) | 16.9 µM (inactive) | 14.9 µM (inactive) | 42 µM (inactive) | 29 µM (inactive) | 20.2 µM (inactive) | 13.5 µM (inactive) | 20.7 µM (inactive) | 30.2 | 25.1 µM (inactive) | 10.4 µM (inactive) | 13 µM (inactive) | 16 µM (inactive) | 22.4 µM (inactive) | 20 µM (inactive) | 17.6 µM (inactive)
13 | Brc1ccccc1/C=C\C1(c2ccccc2)OCCO1 | 2.34 µM (inactive) | 7.29 µM (inactive) | 16 µM (inactive) | 3.34 µM (inactive) | 15.3 µM (inactive) | 6.24 µM (inactive) | 4.98 µM (inactive) | 14.1 µM (inactive) | 4.98 µM (inactive) | 18.8 µM (inactive) | 7.01 µM (inactive) | 13.6 µM (inactive) | 6.38 | 6.59 µM (inactive) | 24.7 µM (inactive) | 7.83 µM (inactive) | 0.238 µM (active) | 13.6 µM (inactive) | 14.1 µM (inactive) | 23 µM (inactive)
